Source: BindingDB's records for doi:10.1021/jm00039a019 (Zeria Pharmaceutical, 1994)

Molecular target: Prolyl endopeptidase (Canis familiaris)
Assay: In vitro inhibitory activity against purified prolyl endopeptidase (PEP) from canine brain.

| IC50 | Compound |
| --- | --- |
| 0.85 nM | O=C[C@@H]1CSCN1C(=O)[C@@H]1CSCN1C(=O)C[C@H]1CCc2ccccc2C1 [(R)-3-[(R)-3-((S)-2-1,2,3,4-Tetrahydro-naphthalen-2-yl-acetyl)-thiazolidine-4-carbonyl]-thiazolidine-4-carbaldehyde] |
| 3500 nM | CC(C)c1ccc(C(=O)c2cccs2)c(SCCCCCCCCN(C)C)n1 [[2-(8-Dimethylamino-octylsulfanyl)-6-isopropyl-pyridin-3-yl]-thiophen-2-yl-methanone] |
